Experimental data: patent publication EP2647628A1, “Substituted tricyclic compounds with activity towards ep1 receptors” (Almirall, S.A., priority 2012, dated 2013)
pKi: −log10 of the molar value.

Target: T1, human EP1 receptor (Homo sapiens, UniProt P34995)
T1 construct: expressed in transfected cells; host or cells: HEK-293 cell membranes
T1 sequence (P34995 1-402): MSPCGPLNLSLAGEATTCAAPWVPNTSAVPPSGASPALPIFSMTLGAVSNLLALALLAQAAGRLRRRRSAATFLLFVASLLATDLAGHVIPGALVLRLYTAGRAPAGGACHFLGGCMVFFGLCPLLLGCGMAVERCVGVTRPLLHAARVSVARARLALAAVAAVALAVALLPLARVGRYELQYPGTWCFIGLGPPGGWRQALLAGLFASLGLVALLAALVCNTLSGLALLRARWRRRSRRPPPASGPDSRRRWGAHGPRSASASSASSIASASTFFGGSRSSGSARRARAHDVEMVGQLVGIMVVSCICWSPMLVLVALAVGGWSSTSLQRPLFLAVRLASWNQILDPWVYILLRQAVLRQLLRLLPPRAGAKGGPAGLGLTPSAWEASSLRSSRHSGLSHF
Assay: Human EP1 receptor radioligand binding assay
Conditions: [3H]-PGE2 (10 nM), transfected HEK-293 cell membranes, pH 6.0, 25 °C, 60 minutes; Ki by Cheng-Prusoff equation
Procedure: To investigate binding properties of EP1 receptor ligands to human EP1 receptor, transfected HEK-293 cell membranes and [3H]-PGE2 (Perkin Elmer) were used. In 96-well plates the assay was carried out with a total reaction volume of 250 µl, containing 25 µl of membrane suspension (30 µg protein/well), 25 µl of [3H]-PGE2 (10 nM) in either absence or presence of 25 µl of either buffer or PGE2 (10 µM) for total and non-specific binding, respectively. Binding buffer contained 10 mM MES, 1 mM MgCl2 and 1 mM EDTA at pH 6.0. Plates were incubated at 25 °C for 60 minutes. After the incubation period, 200 µl of incubate were transferred to MultiScreen HTS, FB plates (Millipore), filtered and plates were washed 6 times with ice-cold 10 mM MES, 1 mM MgCl2 and 1 mM EDTA at pH 6.0. Filters were dried and counted in a MicroBeta scintillation counter (Perkin-Elmer) using EcoScint liquid scintillation cocktail.
Percentage inhibition was calculated relating compounds activity to the 0% inhibition of the wells incubated with 10 nM [3H]-PGE2 alone (total binding) and 100% inhibition of the wells incubated with 10 nM [3H]-PGE2 plus 10 µM PGE2 (non-specific binding). Competition binding curves were carried out by assaying 6 different concentrations with duplicated points. The inhibition constant (Ki) of each compound was calculated by the Cheng-Prusoff equation: Ki = IC50 /(1+[L]/KD) [formula] where IC50 is the concentration of compound that displaces the binding of radioligand by 50%, [L] is the free concentration of radioligand and KD is the dissociation constant of each radioligand. IC50 values were obtained by fitting the data with non-linear regression using XIFit software (IDBS).

Structure (SMILES) | pKi
Cc1ccc2c(c1)[C@@H]1CCC[C@@H]1[C@H](c1cc(C(=O)O)nn1C)N2 [EXAMPLE 62, 5-((3aS,4R,9bR)-2,3,3a,4,5,9b-hexahydro-8-methyl-1H-cyclopenta[c]quinolin-4-yl)-1-methyl-1H-pyrazole-3-carboxylic acid] | < 6.30
Cc1ccc2c(c1)[C@@H]1CCC[C@@H]1[C@H](c1ccc(C(=O)O)cc1)N2C [EXAMPLE 30, 4-((3aS,4R,9bR)-2,3,3a,4,5,9b-hexahydro-5,8-dimethyl-1H-cyclopenta[c]quinolin-4-yl)benzoic acid] | < 6.30
N#Cc1ccc2c(c1)[C@@H]1CCC[C@@H]1[C@H](c1ccc(C(=O)O)cc1)N2 [EXAMPLE 19, 4-((3aS,4R,9bR)-8-cyano-2,3,3a,4,5,9b-hexahydro-1H-cyclopenta[c]quinolin-4-yl)benzoic acid] | < 6.30
Cc1cc(C(=O)O)ccc1[C@@H]1Nc2ccc(C3CC3)cc2[C@@H]2CCC[C@@H]21 [EXAMPLE 43, 4-((3aS, 4R, 9bR)-8-cyclopropyl-2,3,3a, 4,5,9b-hexahydro-1H cyclopenta[c]quinolin-4-yl)-3-methylbenzoic acid] | 6.30 to 7.00
CC(C)c1ccc2c(c1)[C@@H]1CCC[C@@H]1[C@H](c1ccc(C(=O)O)cc1)N2 [EXAMPLE 18, 4-((3aS,4R,9bR)-2,3,3a,4,5,9b-hexahydro-8-isopropyl-1H-cyclopenta[c]quinolin-4-yl)benzoic acid] | 6.30 to 7.00
O=C(O)c1ccc([C@@H]2Nc3ccc(Br)cc3[C@@H]3CCC[C@@H]32)cc1 [EXAMPLE 02, 4-((3aS,4R,9bR)-8-bromo-2,3,3a,4,5,9b-hexahydro-1H cyclopenta[c]quinolin-4-yl)benzoic acid] | 6.30 to 7.00
Cc1ccc2c(c1)[C@@H]1CCC[C@@H]1[C@@H](c1c(C)cc(C(=O)O)cc1C)N2 [EXAMPLE 56, 4-((3aS,4S,9bR)-2,3,3a,4,5,9b-hexahydro-8-methyl-1H cyclopenta[c]quinolin-4-yl)-3,5-dimethylbenzoic acid] | > 7.00
CCc1cc(C(=O)O)ccc1[C@H]1Nc2ccc(OC)cc2[C@@H]2CCC[C@H]12 [EXAMPLE 55, 3-ethyl-4-((3aS,4S,9bR)-2,3,3a,4,5,9b-hexahydro-8-methoxy-1H-cyclopenta[c]quinolin-4-yl)benzoic acid] | 6.30 to 7.00
CCCc1ccc2c(c1)[C@@H]1CCC[C@@H]1[C@H](c1ccc(C(=O)O)cc1)N2 [EXAMPLE 12, 4-((3aS, 4R, 9bR)-2,3,3a, 4,5,9b-hexahydro-8-propyl-1H-cyclopenta[c]quinolin-4-yl)benzoic acid] | < 6.30
Cc1ccc2c(c1)[C@@H]1CCC[C@@H]1[C@H](c1ccc(C(=O)O)cc1Cl)N2 [EXAMPLE 47, 3-chloro-4-((3aS, 4R, 9bR)-2,3,3a, 4,5,9b-hexahydro-8-methyl-1H-cyclopenta[c]quinolin-4-yl)benzoic acid] | 6.30 to 7.00
Cc1ccc2c(c1)[C@@H]1CCC[C@@H]1[C@H](c1ccc(C(=O)O)cc1C)N2 (single isomer, unassigned) [EXAMPLE 37a] | > 7.00
Cc1ccc2c(c1)[C@@H]1CCC[C@@H]1[C@H](c1ccc(C(=O)O)cc1)N2 (racemic) [EXAMPLE 04, 4-((3aS,4R,9bR)-2,3,3a,4,5,9b-hexahydro-8-methyl-1H-cyclopenta[c]quinolin-4-yl)benzoic acid] | 6.30 to 7.00
COc1ccc2c(c1)[C@@H]1CCC[C@@H]1[C@H](c1ccc(C(=O)O)cc1)N2 (racemic) [EXAMPLE 07, 4-((3aS,4R,9bR)-2,3,3a,4,5,9b-hexahydro-8-methoxy-1H-cyclopenta[c]quinolin-4-yl)benzoic acid] | > 7.00
Cc1cc2c(cc1Cl)N[C@@H](c1ccc(C(=O)O)cc1)[C@H]1CCC[C@@H]21 [EXAMPLE 29, 4-((3aS,4R,9bR)-7-chloro-2,3,3a,4,5,9b-hexahydro-8-methyl-1H-cyclopenta[c]quinolin-4-yl)benzoic acid] | < 6.30
COc1ccc2c(c1)[C@@H]1CCC[C@@H]1[C@@H](c1c(C)cc(C(=O)O)cc1C)N2 [EXAMPLE 57, 4-((3aS,4S,9bR)-2,3,3a,4,5,9b-hexahydro-8-methoxy-1H-cyclopenta[c]quinolin-4-yl)-3,5-dimethylbenzoic acid] | > 7.00
Cc1ccc2c(c1)[C@@H]1CCC[C@@H]1[C@H](c1ccc(C(=O)O)c(C)c1)N2 [EXAMPLE 36, 4-((3aS, 4R, 9bR)-2,3,3a, 4,5,9b-hexahydro-8-methyl-1H-cyclopenta[c]quinolin-4-yl)-2-methylbenzoic acid] | < 6.30
COc1ccc2c(c1)[C@]1(C)CCC[C@@H]1[C@H](c1ccc(C(=O)O)cc1)N2 [EXAMPLE 69, 4-((3aS,4R,9bR)-2,3,3a,4,5,9b-hexahydro-8-methoxy-9b-methyl-1H-cyclopenta[c]quinolin-4-yl)benzoic acid] | 6.30 to 7.00
O=C(O)c1ccc([C@@H]2Nc3ccc(Cl)cc3[C@@H]3CCC[C@@H]32)cc1 (single isomer, unassigned) [EXAMPLE 06a] | > 7.00
Cc1ccc2c(c1)[C@]1(C)CCC[C@@H]1[C@H](c1ccc(C(=O)O)cc1C)N2 [EXAMPLE 75, 4-((3aS, 4R, 9bR)-2,3,3a, 4,5,9b-hexahydro-8,9b-dimethyl-1H-cyclopenta[c]quinolin-4-yl)-3-methylbenzoic acid] | 6.30 to 7.00
